Source: patent US20110165173A1, “THERAPEUTIC AGENT AND DETECTION REAGENT FOR ARTERIOSCLEROTIC DISEASE WHICH TARGETS FOR SALUSIN” (PROTEINEXPRESS CO., LTD., priority 2007, published 2011)

Key:
[1] = molecular target: T1, mouse mas-like G protein-coupled receptor Al (mMrgA 1) (Mus musculus, UniProt Q91WW5); conditions: HEK293T cells expressing mMrgA1; Wang Z et al., Eur J Pharmacol. 2006; cited from earlier work
T1 construct: host or cells: HEK293T cells (heterologous expression, reported by Wang et al., Eur J Pharmacol 2006)
T1 sequence (Q91WW5 1-304): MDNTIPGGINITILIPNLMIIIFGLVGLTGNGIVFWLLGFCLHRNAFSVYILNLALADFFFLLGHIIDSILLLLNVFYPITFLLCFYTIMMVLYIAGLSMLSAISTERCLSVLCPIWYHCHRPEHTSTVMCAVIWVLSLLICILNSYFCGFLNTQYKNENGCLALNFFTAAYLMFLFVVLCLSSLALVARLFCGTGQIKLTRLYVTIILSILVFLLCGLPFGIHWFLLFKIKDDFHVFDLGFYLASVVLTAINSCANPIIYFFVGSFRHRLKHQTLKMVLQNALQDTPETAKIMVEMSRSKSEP

ACAT-1 mRNA expression = ACAT-1 mRNA expression in human monocyte-derived macrophages (real time RT-PCR); type: cell-based; conditions: 0.6 nM during 7-day culture
Experimental: RNA extraction was performed using a TRIzol reagent (LIFE TECHNOLOGIES).
Cells were cultured for 7 days in a medium and then the medium was removed. The cells were washed 3 times with PBS. PBS was sufficiently removed therefrom and TRIzol (1 mL) was added thereto for cell lysis. The cell extraction solution was pippeted in and out 5 times and then transferred to a new Eppendorf tube. Then, the tube was left at room temperature for 5 minutes. Chloroform (200 μL) was added thereto, followed by strong shaking for 15 seconds. The tube was further left for 2 to 3 minutes and centrifuged at 12,000 rpm for 15 minutes (Himac CF15D2 high-speed micro refrigerated centrifuge; Hitach, Ltd.). The top layer was transferred to a new Eppendorf tube and isopropanol (500 μL) was added thereto, followed by end-over-end mixing. […] The concentration of the thus obtained RNA solution was obtained by absorbance determination at 260 nm. […]
Next, the RNA expression of ACAT-1 mRNA was analyzed by the real time RT-PCR method.
Primer sequences were determined Primer Express Version 1.0 (PE Biosystems) with the use of the respective human mRNA sequences shown below. […]
Real time PCR was performed to quantify the obtained cDNA by the GeneAmp 5700 Sequence Detection System (Applied Biosystems Japan) with the use of qPCR MasterMix SYBR Greenl (Eurogentec). […]

[2] = system: ACAT-1 protein expression; assay: ACAT-1 protein expression in cultured human monocyte-derived macrophages after differentiation (Western blotting); type: cell-based; conditions: cultured 3 more days
Experimental: For ACAT-1 protein detection, an anti-human ACAT-1 polyclonal antibody (DM10 donated from Dr. Chang, Dartmouth Medical School) [Chang CCY et al., J Biol Chem. 1995; 270: 29532-29540] prepared by immunizing a rabbit was used as a primary antibody (final concentration: 0.5 μg/mL) for a reaction on a transfer membrane at room temperature for 1 hour. The transfer membrane was washed with PBS-0.1% Tween 20, followed by a reaction with a secondary antibody (anti-rabbit IgG antibody: anti-rabbit IgG donkey antibody conjugated with horseradish peroxidase (HRP) (GE Healthcare Bio-Science)) at room temperature for 1 hour. For a secondary antibody, a stock solution (0.5 μL) was diluted 10,000-fold with PBS-0.1% Tween 20 (5 mL), and the resultant was used. Washing was carried out with PBS-0.1% Tween 20, followed by ACAT-1 protein detection with the use of Lumi-Light Plus (PerkinElmer Life Sciences).
In each of the experiments in Examples 1 to 6, salusin-α and salusin-β were added in the phase of differentiation of cultured human monocytes into macrophages and cells obtained on Day 7 of culture were used to examine the effects of salusin-α and salusin-13. In this Example, it was examined whether salusin-α and salusin-β would have similar effects on ACAT-1 protein expression in macrophages obtained after differentiation. […]

## salusin-α: peptide (SEQ ID NO: 1) comprising 28 amino acid residues, generated by processing from preprosalusin (SGALPPAPAAPRPALRAQRAGPAGPGAK; listed as Homo sapiens)
[1]
  ligand for mMrgA1: does not serve as a ligand
ACAT-1 mRNA expression
  ACAT-1 mRNA expression level, percent of that of the control: 80%
[2]; 1.0 nM added on Day 7 after differentiation
  ACAT-1 protein expression level, percent of that of the control: 60%

## salusin-β: peptide (SEQ ID NO: 3) comprising 20 amino acid residues, generated by processing from preprosalusin (AIFIFIRWLLKLGHHGRAPP; listed as Homo sapiens) [reference compound]
[1]
  ligand for mMrgA1: regarded as a ligand
ACAT-1 mRNA expression
  ACAT-1 mRNA expression level relative to control: 1.6 times
[2]; 0.6 nM added on Day 7 after differentiation
  ACAT-1 protein expression level relative to control: 2.2 times
